Data from ChEMBL document CHEMBL1221341, “[17(20)E]- and [17(20)Z]-pregna-5,17(20)-dien-21-oylamides. Facile synthesis and primary evaluation for cancer cells proliferation” (Bioorg Med Chem Lett, 2010).
The source made the active and inactive calls. The rule behind the calls is not given here.

Legend:
Format in all cases: functional, cell-based
MCF7 [1] = experiment: Antiproliferative activity against human MCF7 cells at 0.1 to 0.3 uM after 48 hrs by MTT assay
LNCaP [2] = experiment: Antiproliferative activity against human LNCAP cells at 0.1 to 0.3 uM after 48 hrs by MTT assay
MCF7 [3] = experiment: Antiproliferative activity against human MCF7 cells at 30 uM after 48 hrs by MTT assay
LNCaP [4] = experiment: Antiproliferative activity against human LNCAP cells at 30 uM after 48 hrs by MTT assay

| Structure (SMILES) | Activity (MCF7 [1]) | Activity (LNCaP [2]) | Activity (MCF7 [3]) | Activity (LNCaP [4]) |
| --- | --- | --- | --- | --- |
| C[C@]12CC[C@H](O)CC1=CC[C@@H]1[C@@H]2CC[C@]2(C)/C(=C/C(=O)NCCO)CC[C@@H]12 | inactive | inactive | Active | Active |
| C[C@]12CC[C@H](O)CC1=CC[C@@H]1[C@@H]2CC[C@]2(C)/C(=C/C(N)=O)CC[C@@H]12 | inactive | inactive | Active | Active |
| C[C@]12CC[C@H](O)CC1=CC[C@@H]1[C@@H]2CC[C@]2(C)/C(=C/C(=O)N3CCCC3)CC[C@@H]12 | – | Active | – | – |
| C[C@]12CC[C@H](O)CC1=CC[C@@H]1[C@@H]2CC[C@]2(C)/C(=C\C(=O)N3CCCC3)CC[C@@H]12 | inactive | – | – | – |
